The subject of data set [1] is HSV-1. Description: Viral plaque number-reduction assay, HSV-1. To be noted: GMK AH1 cells. On the procedure:
African green monkey kidney (GMK AH1) cells^46 were cultured in Eagle's minimum essential medium (EMEM) supplemented with 2% calf serum, 0.05% Primaton RL substance (Kraft Inc., Norwich, USA) and antibiotics. Human epidermoid carcinoma (HEp-2) cells were cultured in Dulbecco's modified EMEM (DMEM) supplemented with 10% fetal calf serum and antibiotics. […] The RSV strain A-2^50 was used. The RSV stock was prepared as described by Hallak et al.^51 and stored at −70° C. in the presence of 40% sucrose^52.
The viral infectivity (the plaque number-reduction) assay and the plaque size-reduction assay were carried out as described previously^17. […] Subsequently, the cells were washed with 2 mL of EMEM and overlaid with 1% methylcellulose solution in EMEM. The plaques were visualized by staining with crystal violet solution after 2 (HSV-2) or 3 (HSV-1) days of incubation at 37° C. […] When the compounds were screened for anti-HSV or anti-RSV activity, mixtures of 200 PFU of the virus and the test compound (100 μg/mL) in serum-free EMEM were incubated for 10 min at room temperature before addition to cells and during the entire period of viral infection of cells and the development of viral plaques. In the plaque size-reduction assay, the compounds were added to cells (in methylcellulose overlay medium) after 2 h period of virus infection of cells in the absence of the inhibitor. After 2-3 days of incubation at 37° C., the viral plaques were visualized by staining the cells with 1% solution of crystal violet. For each compound tested, the images of twenty neighboring plaques were captured using a Leica DC300 digital camera attached to a Leitz-Wetzlar Diavert microscope. The area of each plaque was determined using IM500 image software (Leica). Similar protocols were used for RSV, except that the assays were performed in HEp-2 cells and DMEM supplemented with 2% heat-inactivated fetal calf serum was used instead of EMEM.

Data set [2] deals with HEp-2 cells. Description: Cytotoxicity assay, HEp-2. The data set is classed as cell-based, Human. The following applies: cell viability reduced by 50%.
Data set [3] concerns HSV-2. Description: Virus inactivation assay, HSV-2. Type of data set: cell-based. The following applies: for Virus-inactivating activity: viral plaques with compound-treated virus relative to mock-treated controls: 15 min at 37° C. The procedure:
Approximately 10^5 plaque-forming units of HSV-1 KOS321 or HSV-2 333 stain and specific concentrations of the test compound in 200 μL of serum-free EMEM were mixed and incubated at 37° C. for 15 min. The mixtures were diluted to the non-inhibitory concentrations of the test compound, and then subjected to the infectious titer determination as described under the viral plaque number-reduction assay. In case of RSV, the assay was carried out in similar manner using DMEM supplemented with 2% heat-inactivated fetal calf serum instead of EMEM. To evaluate the effect of a low pH value or the presence of cervical secretions; the virus (HSV-2 333) and compounds were diluted in a low pH buffer (4.5) or cervical secretions were added to the compound dilutions before mixing with the virus (HSV-2 333). The cervical secretions were prepared from cervical swabs generated from 3 different individuals. The swabs were rinsed with distilled water and centrifuged at 5000×g for 10 min. The supernatant was kept at −20° C. In the case of RSV, the assay was carried out in a similar manner using DMEM supplemented with 2% heat-inactivated fetal calf serum instead of EMEM.

`CCCCCCCCCCCCOC1OC(COS(=O)(=O)O)C(OS(=O)(=O)O)C(OS(=O)(=O)O)C1OC1OC(COS(=O)(=O)O)C(OS(=O)(=O)O)C(OC2OC(COS(=O)(=O)O)C(OS(=O)(=O)O)C(OC3OC(COS(=O)(=O)O)C(OS(=O)(=O)O)C(OC4OC(COS(=O)(=O)O)C(OS(=O)(=O)O)C(OS(=O)(=O)O)C4OS(=O)(=O)O)C3OS(=O)(=O)O)C2OS(=O)(=O)O)C1OS(=O)(=O)O` [Compound 4, Dodecyl 2,3,4,6-tetra-O-sodium sulfonato-α-D-mannopyranosyl-(1→3)-2,4,6-tri-O-sodium sulfonato-α-D-mannopyranosyl-(1→3)-2,4,6-tri-O-sodium sulfonato-α-D-mannopyranosyl-(1→3)-2,4,6-tri-O-sodium sulfonato-α-D-mannopyranosyl-(1→2)-3,4,6-tri-O-sodium sulfonato-α-D-mannopyranoside]: the “Selective index CC50/IC50 HSV-1” value in data set [1] is more than 190. The “Cytotoxicity CC50 HEp-2” value in data set [2] is more than 400 µg/mL. Further, the “Virus-inactivating activity: viral plaques with compound-treated virus relative to mock-treated controls” value came to 98.6% in data set [3] (HSV-2, 1 μg/ml); 97.5% in data set [3] (HSV-2, 10 μg/ml); 68.1% in data set [3] (HSV-2, 100 μg/ml).

`CC(C)CCCC(C)C1CCC2C3CCC4CC(OC5OC(COS(=O)(=O)O)C(OS(=O)(=O)O)C(OS(=O)(=O)O)C5OC5OC(COS(=O)(=O)O)C(OS(=O)(=O)O)C(OC6OC(COS(=O)(=O)O)C(OS(=O)(=O)O)C(OC7OC(COS(=O)(=O)O)C(OS(=O)(=O)O)C(OS(=O)(=O)O)C7OS(=O)(=O)O)C6OS(=O)(=O)O)C5OS(=O)(=O)O)CCC4(C)C3CCC12C` [Compound 20, 3β-Cholestanyl 2,3,4,6-tetra-O-sodium sulfonato-α-D-mannopyranosyl-(1→3)-2,4,6-tri-O-sodium sulfonato-α-D-mannopyranosyl-(1→3)-2,4,6-tri-O-sodium sulfonato-α-D-mannopyranosyl-(1→2)-3,4,6-tri-O-sodium sulfonato-α-D-mannopyranoside]: in data set [1], the “Selective index CC50/IC50 HSV-1” value was found to be 52. Moreover, the “Cytotoxicity CC50 HEp-2” value in data set [2] amounted to 113 µg/mL. Moreover, the “Virus-inactivating activity: viral plaques with compound-treated virus relative to mock-treated controls” value is listed as 120.3% in data set [3] (HSV-2, 1 μg/ml); 0.3% in data set [3] (HSV-2, 10 μg/ml); 0% in data set [3] (HSV-2, 100 μg/ml). In addition, the “Virus-inactivating activity in the presence of human cervical secretions: viral plaques relative to mock-treated controls” value turned out to be 82.6% in data set [3] (HSV-2, cervical secretions diluted 1:2.2, 1 μg/ml); 78.5% in data set [3] (HSV-2, cervical secretions diluted 1:2.2, 10 μg/ml); 0.3% in data set [3] (HSV-2, cervical secretions diluted 1:2.2, 100 μg/ml). The “Virus-inactivating activity at low pH: viral plaques relative to mock-treated controls” value came out at 93.7% in data set [3] (HSV-2, pH 4.5, 1 μg/ml); 6.8% in data set [3] (HSV-2, pH 4.5, 10 μg/ml); 0.0% in data set [3] (HSV-2, pH 4.5, 100 μg/ml).
